Each structure is given as a SMILES string. Active and inactive are the calls of the source. The rule behind the calls is not given here.

The test system of assay [1] is HCT-116. Nature of the assay: Induction of DNA damage in human HCT-116 cells assessed as upregulation of p53 level at 10 uM incubated for 24 hrs by immunoblotting analysis. Type of assay: functional, cell-based.
Assay [2] addresses Cellular tumor antigen p53 (Homo sapiens) (UniProt P04637). The assay can be described thus: Activation of p53 signaling pathway in human HCT-116 cells by GSEA analysis. Type of assay: cell-based. The following applies: filed as activator.
Assay [3] concerns HCT-116. Nature of the assay: Inhibition of cell invasion in human HCT-116 cells at 5 uM by Transwell assay. Type of assay: functional, cell-based.
Assay [4] has as its system HeLa. The assay can be described thus: Cytotoxicity against human HeLa cells assessed as inhibition rate incubated for 48 hrs by MTT. It is filed as functional, cell-based.
The subject of assay [5] is HCT-116. The assay can be described thus: Induction of DNA damage in human HCT-116 cells assessed as upregulation of p53 level at 10 uM incubated for 24 hrs by immunofluorescence based analysis. Type of assay: functional, cell-based.
Assay [6] concerns A498. The assay can be described thus: Cytotoxicity against human A498 cells assessed as inhibition rate incubated for 48 hrs by MTT. Type of assay: functional, cell-based. The following applies: A498, 48 h.
Assay [7] concerns HCT-116. Nature of the assay: Induction of DNA damage in human HCT-116 cells assessed as upregulation of gamma-H2AX level incubated for 24 hrs by immunoblotting analysis. Type of assay: functional, cell-based. The following applies: dose 2.5-10 µM.
For assay [8], the system named is HCT-116. The assay can be described thus: Inhibition of cell migration in human HCT-116 cells assessed as repair capacity at 5 to 10 uM measured upto 48 hrs by scratch assay. It is filed as functional, cell-based. The following applies: dose 5-10 µM.
Assay [9] has as its system HCT-116. The assay can be described thus: Inhibition of cell adhesion in human HCT-116 cells at 10 uM. It is filed as functional, cell-based.
Assay [10] concerns MDA-MB-231. Nature of the assay: Cytotoxicity against human MDA-MB-231 cells assessed as inhibition rate incubated for 48 hrs by MTT. Type of assay: functional, cell-based. The following applies: MDA-MB-231, 48 h.
The subject of assay [11] is HCT-116. The assay can be described thus: Antitumor activity against human HCT116 cells xenografted in chick embryo chorioallantoic membrane assessed as reduction in tumor volume by CAM assay. Type of assay: functional, cell-based. The following applies: dose 5-10 µM.
Assay [12] concerns HCT-116. Nature of the assay: Induction of DNA damage in human HCT-116 cells assessed as upregulation of p53 level at 5 uM incubated for 24 hrs by immunofluorescence based analysis. It is filed as functional, cell-based.
Assay [13] has as its system HCT-116. Nature of the assay: Inhibition of cell proliferation in human HCT-116 cells at 10 uM by colony formation assay relative to control. It is filed as functional, cell-based.
Assay [14] has as its system HCT-116. The assay can be described thus: Induction of DNA damage in human HCT-116 cells assessed as upregulation of p21 level incubated for 24 hrs by PCR analysis. The following applies: dose 2.5-10 µM. Type of assay: functional, cell-based.
Assay [15] relates to HCT-116. Nature of the assay: Activation of TNFR-mediated TNF signaling pathway in human HCT-116 cells by GSEA analysis. It is filed as cell-based. The following applies: filed as activator.
Assay [16] has as its system HCT-116. Nature of the assay: Induction of DNA damage in human HCT-116 cells assessed as upregulation of gamma-H2AX level at 10 uM by immunoblotting analysis. It is filed as functional, cell-based.
In assay [17] the test system is HCT-116. The assay can be described thus: Induction of DNA damage in human HCT-116 cells assessed as downregulation of BCL2 level at 10 uM incubated for 24 hrs by immunoblotting analysis. It is filed as functional, cell-based.
The subject of assay [18] is HCT-116. Nature of the assay: Cytotoxicity against human HCT-116 cells assessed as inhibition rate incubated for 48 hrs by MTT. Type of assay: functional, cell-based. The following applies: HCT-116, 48 h.
In assay [19] the test system is HCT-116. The assay can be described thus: Induction of DNA damage in human HCT-116 cells assessed as upregulation of BAX level at 10 uM incubated for 24 hrs by immunoblotting analysis. Type of assay: functional, cell-based.
The subject of assay [20] is HCT-116. The assay can be described thus: Antitumor activity against human HCT116 cells xenografted in chick embryo chorioallantoic membrane assessed as reduction in angiogenesis by CAM assay. Type of assay: functional, cell-based. The following applies: dose 5-10 µM.
Assay [21] has as its system HCT-116. The assay can be described thus: Inhibition of cell adhesion in human HCT-116 cells at 5 uM. It is filed as functional, cell-based.

Cellular tumor antigen p53 (Homo sapiens), sequence (P04637 whole entry, looked up): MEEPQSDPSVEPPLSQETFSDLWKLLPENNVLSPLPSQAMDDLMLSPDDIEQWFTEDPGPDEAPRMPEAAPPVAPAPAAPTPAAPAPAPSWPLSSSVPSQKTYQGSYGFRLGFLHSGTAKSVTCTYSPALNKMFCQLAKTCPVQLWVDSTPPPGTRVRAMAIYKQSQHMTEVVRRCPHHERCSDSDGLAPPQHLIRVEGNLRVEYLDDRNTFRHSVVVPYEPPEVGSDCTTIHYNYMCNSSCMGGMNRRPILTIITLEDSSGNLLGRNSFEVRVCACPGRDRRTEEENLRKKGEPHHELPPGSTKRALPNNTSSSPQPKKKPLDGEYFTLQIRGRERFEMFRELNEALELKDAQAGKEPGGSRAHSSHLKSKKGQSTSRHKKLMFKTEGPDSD

For the compound `O=C(Nc1ccc(OCc2ccccn2)c(Cl)c1)c1ccc(CN2CCN(C(=O)C3CC3)CC2)cc1`, the result in [1], in [2], in assay [5], in assay [12], in assay [15] and in assay [17] was Active. Moreover, the result in assay [19] was Active. The inhibition result in assay [3], in assay [9] and in assay [21] was “Active” throughout. Further, the IC50 came out at 13.5 µM in [4], 18.5 µM in assay [6], 17.8 µM in [10] and 7.21 µM in [18]. For the same compound, the Activity result in [7] was “Dose-dependent-effect”; in [8] it was “Dose-dependent-effect; Stronger Inhibition”; in [11] it was “Dose-dependent-effect”; in [14], “Dose-dependent-effect”; in assay [16] it was “Time-dependent-effect”; in assay [20], “Dose-dependent-effect”. Besides, the inhibition result in assay [13] is “Active; Significantly Decreased Colony Formation”.
As to `CCOc1cc2ncc(C#N)c(Nc3ccc(OCc4ccccn4)c(Cl)c3)c2cc1NC(=O)/C=C/CN(C)C` [NERATINIB], the IC50 is 18.2 µM in [4], 19.5 µM in [6], 27.7 µM in [10] and 17.3 µM in [18]. Further, the outcome in assay [8] was Active. For the same compound, the inhibition entry in assay [9] and in assay [13] was “Active” throughout.
